In patent publication US5096886A, “Antibacterial polypeptides” (Kabigen AB, priority 1989, dated 1992):
No end group written: not given here.

How the values were obtained:
Format in all cases: cell-based
[1] = tested on: Pseudomonas aeruginosa, OT97; test: Antibacterial lethal concentration, thin agarose plates
Experimental: (§1) The polypetide obtained in Example 2 was tested for antibacterial activity against different bacteria, the activity being given as lethal concentrations in micro-moles per liter (μM).
(§2) The four last strains of E. coli were obtained from Olof Soderlind, SVA, Uppsala and they are clinical isolates that are pathogenic to piglets. Typing of O and K antigens are indicated after the strain number. Lethal concentration is the lowest concentration of cecropin that inhibits growth of the respective bacteria in thin agarose plates (see Hultmark, D. et al. EMCO J. 2, 571-576 (1983).

[2] = tested on: Staphylococcus aureus, Cowan 1; test: as above
Experimental: as §1, §2

[3] = tested on: Escherichia coli K12, D21; test: as above; details: lowest concentration that inhibits growth in thin agarose plates
Experimental: as §1, §2

Streptococcus pyogenes = test: as above
Experimental: as §1, §2

[4] = tested on: Bacillus megaterium, Bm11; test: as above
Experimental: as §1, §2

[5] = tested on: Escherichia coli 853/67, 0149, K88; test: as above; details: clinical isolate pathogenic to piglets
Experimental: as §1, §2

[6] = tested on: Acinetobacter calcoaceticus, Ac11; test: as above
Experimental: as §1, §2

[7] = tested on: Escherichia coli Bd4462/84, O101, K99; test: as above; details: clinical isolate pathogenic to piglets
Experimental: as §1, §2

[8] = tested on: Salmonella typhimurium, LT2; test: as above
Experimental: as §1, §2

Proteus vulgaris, Pv11 = test: as above
Experimental: as §1, §2

[9] = tested on: Escherichia coli Bd4468/84, O64, K99; test: as above; details: clinical isolate pathogenic to piglets
Experimental: as §1, §2

[10] = tested on: Escherichia coli Bd2221/75, O8, K88; test: as above; details: clinical isolate pathogenic to piglets
Experimental: as §1, §2

bacteria = test: Overall comparison of antibacterial activity of the two forms; details: comparison of the C-terminal amide with the free-acid form (Example 3)
Experimental: as §1, §2

| Substance | Antibacterial activity as lethal concentration [1] [µM] | Antibacterial activity as lethal concentration [2] [µM] | Antibacterial activity as lethal concentration [3] [µM] | Antibacterial activity as lethal concentration (Streptococcus pyogenes) [µM] | Antibacterial activity as lethal concentration [4] [µM] | Antibacterial activity as lethal concentration [5] [µM] | Antibacterial activity as lethal concentration [6] [µM] | Antibacterial activity as lethal concentration [7] [µM] | Antibacterial activity as lethal concentration [8] [µM] | Antibacterial activity as lethal concentration (Proteus vulgaris, Pv11) [µM] | Antibacterial activity as lethal concentration [9] [µM] | Antibacterial activity as lethal concentration [10] [µM] | antibiotic quality, amidated form versus free acid (bacteria) |
| --- | --- | --- | --- | --- | --- | --- | --- | --- | --- | --- | --- | --- | --- |
| SWLSKTAKKLENSAKKRISEGIAIAIQGGPR [P1-OH, H2 N-Ser-Trp-Leu-Ser-Lys-Thr-Ala-Lys-Lys-Leu-Glu-Asn-Ser-Ala-Lys-Lys-Arg-Ile- Ser-Glu-Gly-Ile-Ala-Ile-Ala-Ile-Gln-Gly-Gly-Pro-Arg-COOH] | 13 | > 520 | 0.4 | 44 | 5.3 | 0.6 | 0.5 | 0.8 | 1.7 | 12 | 0.6 | 0.7 | – |
| SWLSKTAKKLENSAKKRISEGIAIAIQGGPR-NH2 [P1-NH2] | 5.9 | > 490 | 0.3 | 19 | 1.8 | 0.9 | 0.2 | 0.7 | 0.9 | 5.7 | 0.3 | 0.6 | better antibiotic |
